Source: patent US20140039044A1, “Hydroxylated Polymethoxyflavone Compositions” (WLLGEN, INC., priority 2006, published 2014)
Where two headings read alike, the source gives them in different places.

Columns and labels:
Type in all cases: cell-based, human
AGS cells [1] = assay: Cell survival assay (antiproliferative IC50); conditions: Homo sapiens, AGS cells, read-out: Antiproliferative IC50
Protocol: (§1) Human colon carcinoma COLO205 and HT-29 cell lines (American Type Culture Collection (ATTC), Manassas, Va.) and the leukemia cell line HL-60 were maintained at 37° C. in 5% CO2 air in RPMI 1640 medium supplemented with 10% heat-inactivated fetal bovine serum (Gibco BRL, Grand Island, N.Y.), 100 units/mL penicillin, 100 μg/mL streptomycin and 2 mM 1-glutamine. The human gastric carcinoma AGS cell line (CCRC 60102), obtained from the Food Industry Research and Development Institute (Hsinchu, Taiwan), was maintained as described above, except that DMEM/F 12 was used as the medium rather than the RPMI 1640 medium. The human breast carcinoma MCF-7 cell line MCF-7 (ATTC) was cultured in RPMI 1640 medium supplemented with 5% fetal calf serum at 37° C. in a humidified atmosphere of 5% CO2 in air. The mouse macrophage cell line RAW 264.7 was maintained in RPMI 1640 supplemented with 100 U/ml penicillin, 100 μg/ml streptomycin, and 10% heat-inactivated fetal calf serum.
(§2) Cancer cells (2×10^5) were plated in 12-well Petri dishes. The next day, the medium was changed and treated with different concentration of the test compounds or compositions for 24 h. Where individual compounds were to be tested, stock solutions of the compound was prepared to contain 200 μM of the individual hydroxylated or non-hydroxylated PMF in dimethylsulfoxide (DMSO). Control cells were treated with DMSO to a final concentration of 0.05% (v/v). Depending on the objective of the particular experiment, cells were treating with test compound or composition for 1, 3 or 6 days. At the end of incubation, cells were harvested for cell count using a hemocytometer and measuring the cellular total nucleic acid content with the CyQUANT Cell Proliferation Assay Kit (Molecular Probes).
(§3) 1 N PMF and 6 N PMF compositions containing hydroxylated PMFs, prepared as described in Section 8.3 above, 70% PMF OPE and 5,6,7,8,3′,4′-hexamethoxyflavone (nobiletin) were tested for antiproliferative activity and apoptosis-inducing activity in HL-60, AGS and COLO205 cells as described in Section 8.4 above. Antiproliferative and apoptosis-inducing activities were derived as IC50 values and AC50, values, respectively, where AC50 is the concentration required for 50% apoptosis.
(§4) The PMF compounds were assayed in vitro for cell growth inhibition and for their ability to induce apoptosis in various human cancer cells, including HL-60, AGS, COLO 205, and HT-29 cells, using methods described in Section 8.4 above. Antiproliferative (IC50) and apoptosis-inducing activity (AC50) of PMFs in the HL-60, AGS, COLO 205, and HT-29 cells are reported in Table 9, where *P<0.05, **P<0.01 and ***P<0.001 indicate statistically significant differences from the control group.

COLO205 cells [2] = assay: Cell survival assay (antiproliferative IC50); conditions: Homo sapiens, COLO 205, COLO205 cells, read-out: Antiproliferative IC50
Protocol: as §1, §2, §3, §4

HL-60 cells [3] = assay: Cell survival assay (antiproliferative IC50); conditions: Homo sapiens, HL-60 cells, read-out: Antiproliferative IC50
Protocol: as §1, §2, §3, §4

AGS cells [4] = assay: Apoptotic ratio by propidium iodide flow cytometry (AC50); conditions: Homo sapiens, AGS cells
Protocol: (§5) The human cancer cells (2×10^5) were cultured in 60-mm Petri dishes and incubated for 24 h. After treated with test compounds for 24 h, the cells were then harvested, washed with PBS resuspended in 200 μL of PBS, and fixed in 800 μL of iced 100% ethanol at −20° C. After being left to stand overnight, the cell pellets were collected by centrifugation, resuspended in 1 mL of hypotonic buffer (0.5% Triton X-100 in PBS and 0.5 μg/mL RNase) and incubated at 37° C. for 30 min. Next, 1 mL of propidium iodide solution (50 μg/mL) was added, and the mixture was allowed to stand on ice for 30 min. Fluorescence emitted from the propidium iodide-DNA complex was quantitated after excitation of the fluorescent dye by FACScan cytometry (Becton Dickinson, San Jose, Calif.).
as §3, §4

COLO205 cells [5] = assay: as above; conditions: Homo sapiens, COLO 205, COLO205 cells
Protocol: as §5, §3, §4

HL-60 cells [6] = assay: as above; conditions: Homo sapiens, HL-60 cells
Protocol: as §5, §3, §4

HT-29 cells = assay: as above; conditions: Homo sapiens, read-out: Apoptosis-inducing AC50
Protocol: as §5, §4

AGS cells [7] = assay: Cell cycle distribution by flow cytometry; conditions: 24 h
Protocol: as §5
(§6) The effects of the hydrolyzed PMF-enriched compositions, nobiletin and 70% PMF OPE on cell cycle distribution were studied, following the procedures described in Section 8.4. Results for cell cycle distribution in HL-60 cells, COLO205 cells and AGS cells are provided in Table 5, Table 6 and Table 7, respectively. […] In HL-60 cells, G2/M arrest predominated in cells treated with 6N PMF concentrations ≧5 μM and with 1N PMF concentrations ≧25 μM.
(§7) Compounds A-K were evaluated in terms of their effects in arresting cell cycle progression by observing cell cycle phase distribution in cells treated with the compounds. Cells were treated with 5, 10, 25, 50, and 100 μM of one of compound A-K or DMSO (control) for 24 h and subjected to flow cytometric analysis after staining their DNA, as described above.
(§8) Similar cell cycle phase distribution studies were performed in AGS, COLO205, and HT-29 cells in response to individual PMFs, with results reported in Tables 11, 12 and 13, respectively.

COLO205 cells [8] = assay: Cell cycle distribution by flow cytometry; conditions: 24 h; for Cell Cycle Distribution G0/G1 / Cell Cycle Distribution G2/M / Cell Cycle Distribution S: COLO205 cells
Protocol: as §5, §6, §7, §8

[9] = Table 4, read-out: Apoptosis-inducing AC50 (concentration required for 50% apoptosis)
[10] = read-out: Apoptosis-inducing AC50

Structure (SMILES): COc1ccc(-c2cc(=O)c3c(OC)c(OC)c(OC)c(OC)c3o2)cc1OC [Compound A, 5,6,7,8,3′,4′-hexamethoxyflavone, reference compound]
- IC50 (AGS cells [1]; Table 4): > 100 µg/mL
- IC50 (AGS cells [1]): > 100 µM
- IC50 (COLO205 cells [2]; Table 4): 66.7 ± 0.73 µg/mL
- IC50 (COLO205 cells [2]): 38 ± 1.4 µM
- IC50 (HL-60 cells [3]; Table 4): > 100 µg/mL
- IC50 (HL-60 cells [3]): > 100 µM
- AC50 (AGS cells [4]; [9]): > 100 µg/mL
- AC50 (AGS cells [4]; [10]): > 100 µM
- AC50 (COLO205 cells [5]; [9]): > 100 µg/mL
- AC50 (COLO205 cells [5]; [10]): > 100 µM
- AC50 (HL-60 cells [6]; [9]): > 100 µg/mL
- AC50 (HL-60 cells [6]; [10]): > 100 µM
- AC50 (HT-29 cells): > 100 µM
- Cell Cycle Distribution G0/G1 (AGS cells [7]; 5 μM, Table 7): 58.67 ± 0.61
- Cell Cycle Distribution G2/M (AGS cells [7]; 5 μM, Table 7): 13.50 ± 1.34
- Cell Cycle Distribution S (AGS cells [7]; 5 μM, Table 7): 27.84 ± 1.94
- Cell Cycle Distribution G0/G1 (AGS cells [7]; 5 μM, Table 11): 44.7 ± 0.71
- Cell Cycle Distribution G2/M (AGS cells [7]; 5 μM, Table 11): 0.4 ± 0.57
- Cell Cycle Distribution S (AGS cells [7]; 5 μM, Table 11): 54.4 ± 0.64
- Cell Cycle Distribution G0/G1 (AGS cells [7]; 10 μM, Table 7): 59.74 ± 0.36
- Cell Cycle Distribution G2/M (AGS cells [7]; 10 μM, Table 7): 13.57 ± 1.23
- Cell Cycle Distribution S (AGS cells [7]; 10 μM, Table 7): 26.70 ± 0.87
- Cell Cycle Distribution G0/G1 (AGS cells [7]; 10 μM, Table 11): 47.1 ± 0.28
- Cell Cycle Distribution G2/M (AGS cells [7]; 10 μM, Table 11): 5.0 ± 0.64
- Cell Cycle Distribution S (AGS cells [7]; 10 μM, Table 11): 49.1 ± 0.64
- Cell Cycle Distribution G0/G1 (AGS cells [7]; 25 μM, Table 7): 59.56 ± 1.98
- Cell Cycle Distribution G2/M (AGS cells [7]; 25 μM, Table 7): 13.50 ± 0.35
- Cell Cycle Distribution S (AGS cells [7]; 25 μM, Table 7): 26.95 ± 2.33
- Cell Cycle Distribution G0/G1 (AGS cells [7]; 25 μM, Table 11): 52.9 ± 1.06
- Cell Cycle Distribution G2/M (AGS cells [7]; 25 μM, Table 11): 2.8 ± 0.35
- Cell Cycle Distribution S (AGS cells [7]; 25 μM, Table 11): 43.7 ± 0.42
- Cell Cycle Distribution G0/G1 (AGS cells [7]; 50 μM, Table 7): 56.45 ± 0.03
- Cell Cycle Distribution G2/M (AGS cells [7]; 50 μM, Table 7): 15.25 ± .33
- Cell Cycle Distribution S (AGS cells [7]; 50 μM, Table 7): 28.31 ± 0.36
- Cell Cycle Distribution G0/G1 (AGS cells [7]; 50 μM, Table 11): 53.8 ± 0.64
- Cell Cycle Distribution G2/M (AGS cells [7]; 50 μM, Table 11): 6.6 ± 0.69
- Cell Cycle Distribution S (AGS cells [7]; 50 μM, Table 11): 41.3 ± 0.92
- Cell Cycle Distribution G0/G1 (AGS cells [7]; 100 μM, Table 7): 46.13 ± 4.96
- Cell Cycle Distribution G2/M (AGS cells [7]; 100 μM, Table 7): 15.54 ± 1.10
- Cell Cycle Distribution S (AGS cells [7]; 100 μM, Table 7): 28.33 ± 3.86
- Cell Cycle Distribution G0/G1 (AGS cells [7]; 100 μM, Table 11): 66.9 ± 0.14
- Cell Cycle Distribution G2/M (AGS cells [7]; 100 μM, Table 11): 3.2 ± 0.57
- Cell Cycle Distribution S (AGS cells [7]; 100 μM, Table 11): 31.0 ± 0.64
- Cell Cycle Distribution G0/G1 (COLO205 cells [8]; 5 μM, Table 6): 63.83 ± 0.29
- Cell Cycle Distribution G2/M (COLO205 cells [8]; 5 μM, Table 6): 8.25 ± 0.69
- Cell Cycle Distribution S (COLO205 cells [8]; 5 μM, Table 6): 27.93 ± 0.98
- Cell Cycle Distribution G0/G1 (COLO205 cells [8]; 5 μM, Table 12): 63.63 ± 0.53
- Cell Cycle Distribution G2/M (COLO205 cells [8]; 5 μM, Table 12): 1.58 ± 0.04
- Cell Cycle Distribution S (COLO205 cells [8]; 5 μM, Table 12): 34.80 ± 0.57
- Cell Cycle Distribution G0/G1 (COLO205 cells [8]; 10 μM, Table 6): 71.13 ± 0.65
- Cell Cycle Distribution G2/M (COLO205 cells [8]; 10 μM, Table 6): 7.42 ± 0.48
- Cell Cycle Distribution S (COLO205 cells [8]; 10 μM, Table 6): 21.45 ± 0.17
- Cell Cycle Distribution G0/G1 (COLO205 cells [8]; 10 μM, Table 12): 67.25 ± 0.38
- Cell Cycle Distribution G2/M (COLO205 cells [8]; 10 μM, Table 12): 0.25 ± 0.25
- Cell Cycle Distribution S (COLO205 cells [8]; 10 μM, Table 12): 32.50 ± 0.13
- Cell Cycle Distribution G0/G1 (COLO205 cells [8]; 25 μM, Table 6): 84.21 ± 4.38
- Cell Cycle Distribution G2/M (COLO205 cells [8]; 25 μM, Table 6): 4.50 ± 0.35
- Cell Cycle Distribution S (COLO205 cells [8]; 25 μM, Table 6): 14.29 ± 0.22
- Cell Cycle Distribution G0/G1 (COLO205 cells [8]; 25 μM, Table 12): 69.94 ± 1.02
- Cell Cycle Distribution G2/M (COLO205 cells [8]; 25 μM, Table 12): 0.64 ± 0.07
- Cell Cycle Distribution S (COLO205 cells [8]; 25 μM, Table 12): 27.42 ± 1.09
- Cell Cycle Distribution G0/G1 (COLO205 cells [8]; 50 μM, Table 6): 76.82 ± 1.48
- Cell Cycle Distribution G2/M (COLO205 cells [8]; 50 μM, Table 6): 6.30 ± 0.08
- Cell Cycle Distribution S (COLO205 cells [8]; 50 μM, Table 6): 16.89 ± 1.39
- Cell Cycle Distribution G0/G1 (COLO205 cells [8]; 50 μM, Table 12): 82.40 ± 0.63
- Cell Cycle Distribution G2/M (COLO205 cells [8]; 50 μM, Table 12): 0.29 ± 0.08
- Cell Cycle Distribution S (COLO205 cells [8]; 50 μM, Table 12): 17.50 ± 0.45
- Cell Cycle Distribution G0/G1 (COLO205 cells [8]; 100 μM, Table 6): 77.12 ± 2.00
- Cell Cycle Distribution G2/M (COLO205 cells [8]; 100 μM, Table 6): 5.11 ± .46
- Cell Cycle Distribution S (COLO205 cells [8]; 100 μM, Table 6): 17.74 ± 2.40
- Cell Cycle Distribution G0/G1 (COLO205 cells [8]; 100 μM, Table 12): 65.60 ± 0.65
- Cell Cycle Distribution G2/M (COLO205 cells [8]; 100 μM, Table 12): 6.20 ± 1.25
- Cell Cycle Distribution S (COLO205 cells [8]; 100 μM, Table 12): 28.21 ± 0.60
- Cell cycle arrest, in words (COLO205 cells [8]; COLO 205 cells, compound A 50 μM, compound I 100 μM): trends in G1 arrest
